For data set [1], the system named is SARS-CoV-2. Put plainly: microbe, parasite or virus in culture. In kind it is cell-based.
The test system of a further data set is Vero cell lines. Put plainly: Cell viability of Vero cells in the SARS-CoV-2 inhibition experiment (Example 2).
Data set [2] in a line: Cell viability of VERO cells by WST-1 assay (Example 3). The conditions noted are these: African green monkey.
Data set [3] deals with SARS-CoV-2. Put plainly: microbe, parasite or virus in culture. In kind it is cell-based. The conditions noted are these: Severe acute respiratory syndrome coronavirus 2, read-out: SARS-CoV-2 virus 50% inhibitory ability (IC50 value); VERO cells infected at MOI 0.1 for one hour, then drug; culture fluid after 48 hours, qRT-PCR. A general note: Quantitative PCR measures a nucleic acid by following its amplification.

Where [4] appears, read: Severe acute respiratory syndrome coronavirus 2, Vero, 24 h, concentration 25 uM, Vero cells, 24 h, read-out: SARS-CoV-2 virus inhibitory ability (%, average ± standard deviation).
The mark [5] stands for this setting: Severe acute respiratory syndrome coronavirus 2, Vero, 24 h, concentration 50 uM, Vero cells, 24 h, read-out: SARS-CoV-2 virus inhibitory ability (%, average ± standard deviation).
Setting [6] is: Severe acute respiratory syndrome coronavirus 2, Vero, 24 h, read-out: SARS-CoV-2 virus 50% inhibitory ability (IC50 value), Vero cells dosed while being infected, 24 h, compounds.
The mark [7] stands for this setting: Severe acute respiratory syndrome coronavirus 2, Vero, 24 h, read-out: SARS-CoV-2 virus 50% inhibitory ability (IC50 value).

Several values for one entry are separate records, joined by “and”; a condition that tells them apart may be missing. Equal entries are not always repeated. Where two headings read alike, the source gives them in different places.

Broadly, the IC50 is the concentration at which inhibition is half-maximal. Turning to `Cc1cccc(C)c1OCC(=O)N[C@@H](Cc1ccccc1)[C@@H](O)C[C@H](Cc1ccccc1)NC(=O)[C@H](C(C)C)N1CCCNC1=O` [Lopinavir], the inhibition at 25 µM with SARS-CoV-2 [1] (setting [4]) turned out to be 99.01 ± 0.02%. Further, in the data set on SARS-CoV-2 [1] (setting [5]), the inhibition at 50 µM came to 98.2 ± 2.11%. The IC50 in the data set with SARS-CoV-2 [1] (setting [6]) amounted to 12.6 µM; with SARS-CoV-2 [1] (read-out: SARS-CoV-2 virus 50% inhibitory ability (IC50 value), Vero cells dosed while being infected, 24 h, compounds) it was 14.5 µM. For the same molecule, the “SARS-CoV-2 virus inhibitory ability (%, average ± standard deviation)” value in the data set on SARS-CoV-2 [1] (concentration 0.10 uM, Vero cells, 24 h, 0.1 µM) is 3.14 ± 0.24% and −0.2 ± 4.23%; in the data set with SARS-CoV-2 [1] (concentration 0.20 uM, Vero cells, 24 h, 0.2 µM), 0.2 ± 2.44%; with SARS-CoV-2 [1] (concentration 0.39 uM, Vero cells, 24 h, 0.39 µM) it was −0.60 ± 2.75% and 1.2 ± 5.71%; in the data set with SARS-CoV-2 [1] (concentration 1.56 uM, Vero cells, 24 h, 1.56 µM), 0.79 ± 3.76% and 1.7 ± 0.27%; in the data set on SARS-CoV-2 [1] (concentration 3.13 uM, Vero cells, 24 h, 3.13 µM), 3.03 ± 0.67% and 0.2 ± 6.78%; with SARS-CoV-2 [1] (concentration 6.25 uM, Vero cells, 24 h, 6.25 µM) it was 3.38 ± 5.94% and −0.1 ± 1.27%. Besides, the “SARS-CoV-2 virus inhibitory ability (%, average ± standard deviation)” value was found to be 98.6 ± 0.28% in the data set with SARS-CoV-2 [1] (concentration 25 uM, Vero cells, 24 h, 25 µM) and 99.6 ± 0.57% in the data set on SARS-CoV-2 [1] (concentration 50 uM, Vero cells, 24 h, 50 µM).
Turning to `CCN(CC)CCCC(C)Nc1ccnc2cc(Cl)ccc12` (centres unmarked) [Chloroquine], the “Cell viability (%, average ± standard deviation)” value with Vero cell lines (concentration 0.10 uM) is 83.10 ± 6.34%; in the data set with Vero cell lines (concentration 0.20 uM) it was 87.70 ± 0.37%; in the data set on Vero cell lines (concentration 0.39 uM), 83.14 ± 3.44%; in the data set with Vero cell lines (concentration 1.56 uM), 89.11 ± 4.21%; with Vero cell lines (concentration 3.13 uM), 97.41 ± 1.82%; in the data set with Vero cell lines (concentration 6.25 uM) it was 90.84 ± 3.72%. The “Cell viability (%, average ± standard deviation)” value in the data set with Vero cell lines (concentration 12.5 uM) was determined as 83.63 ± 0.73%; with Vero cell lines (concentration 25 uM) it was 71.29 ± 6.06%; in the data set with Vero cell lines (concentration 50 uM), 59.69 ± 1.38%. The inhibition at 0.1 µM in the data set on SARS-CoV-2 [1] (Severe acute respiratory syndrome coronavirus 2, Vero, 24 h, concentration 0.10 uM, Vero cells, 24 h, read-out: SARS-CoV-2 virus inhibitory ability (%, average ± standard deviation)) was -2.83 ± 2.09%. The inhibition at 0.2 µM in the data set with SARS-CoV-2 [1] (Severe acute respiratory syndrome coronavirus 2, Vero, 24 h, concentration 0.20 uM, Vero cells, 24 h, read-out: SARS-CoV-2 virus inhibitory ability (%, average ± standard deviation)) is -4.26 ± 0.03%. Moreover, the inhibition at 0.39 µM in the data set with SARS-CoV-2 [1] (Severe acute respiratory syndrome coronavirus 2, Vero, 24 h, concentration 0.39 uM, Vero cells, 24 h, read-out: SARS-CoV-2 virus inhibitory ability (%, average ± standard deviation)) is -2.86 ± 0.21%. In addition, the inhibition at 1.56 µM in the data set with SARS-CoV-2 [1] (Severe acute respiratory syndrome coronavirus 2, Vero, 24 h, concentration 1.56 uM, Vero cells, 24 h, read-out: SARS-CoV-2 virus inhibitory ability (%, average ± standard deviation)) was found to be 3.52 ± 6.42%. Also, in the data set on SARS-CoV-2 [1] (Severe acute respiratory syndrome coronavirus 2, Vero, 24 h, concentration 3.13 uM, Vero cells, 24 h, read-out: SARS-CoV-2 virus inhibitory ability (%, average ± standard deviation)), the inhibition at 3.13 µM came out at 61.1 ± 7.72%. Besides, the inhibition at 6.25 µM in the data set with SARS-CoV-2 [1] (Severe acute respiratory syndrome coronavirus 2, Vero, 24 h, concentration 6.25 uM, Vero cells, 24 h, read-out: SARS-CoV-2 virus inhibitory ability (%, average ± standard deviation)) was 97.7 ± 0.16%. Moreover, the inhibition at 12.5 µM in the data set on SARS-CoV-2 [1] (Severe acute respiratory syndrome coronavirus 2, Vero, 24 h, concentration 12.5 uM, Vero cells, 24 h, read-out: SARS-CoV-2 virus inhibitory ability (%, average ± standard deviation)) was found to be 99.31 ± 0.39%. Also, the inhibition at 25 µM in the data set with SARS-CoV-2 [1] (setting [4]) was determined as 98.93 ± 0.07%. Also, the inhibition at 50 µM in the data set with SARS-CoV-2 [1] (setting [5]) was 99.4 ± 1%. The half-maximal inhibitory concentration (IC50) with SARS-CoV-2 [1] (setting [6]) stood at 8.78 µM.
What is called CC50 is the concentration giving 50% cytotoxicity. In data set [2], `CCN(CCO)CCCC(C)Nc1ccnc2cc(Cl)ccc12` (centres unmarked) [Hydroxy-chloroquine, reference compound] came in with a cytotoxic concentration (CC50) at 48 h of 160 µM. Besides, the IC50 in the data set with SARS-CoV-2 [3] was found to be 9.33 µM.
Take `CCC(CC)COC(=O)[C@H](C)N[P@](=O)(OC[C@H]1O[C@@](C#N)(c2ccc3c(N)ncnn23)[C@H](O)[C@@H]1O)Oc1ccccc1` [Remdesivir]: the inhibition at 6.25 µM in the data set with SARS-CoV-2 [1] (Severe acute respiratory syndrome coronavirus 2, Vero, 24 h, concentration 6.25 uM, read-out: SARS-CoV-2 virus inhibitory ability (%, average ± standard deviation)) came out at 10.8 ± 43.8%. Besides, the inhibition at 12.5 µM with SARS-CoV-2 [1] (Severe acute respiratory syndrome coronavirus 2, Vero, 24 h, concentration 12.5 uM, read-out: SARS-CoV-2 virus inhibitory ability (%, average ± standard deviation)) is 63.6 ± 1.23%. Also, the inhibition at 25 µM in the data set with SARS-CoV-2 [1] (Severe acute respiratory syndrome coronavirus 2, Vero, 24 h, concentration 25 uM, read-out: SARS-CoV-2 virus inhibitory ability (%, average ± standard deviation)) was 84.6 ± 2.21%. For the same molecule, in the data set on SARS-CoV-2 [1] (Severe acute respiratory syndrome coronavirus 2, Vero, 24 h, concentration 50 uM, read-out: SARS-CoV-2 virus inhibitory ability (%, average ± standard deviation)), the inhibition at 50 µM stood at 94.38 ± 0.41%. Moreover, the 50% inhibitory concentration (IC50) is 10.8 µM in the data set with SARS-CoV-2 [1] (setting [7]) and 12.7 µM with SARS-CoV-2 [1] (read-out: SARS-CoV-2 virus 50% inhibitory ability (IC50 value)). Further, the “SARS-CoV-2 virus inhibitory ability (%, average ± standard deviation)” value was −2.24 ± 7.45% with SARS-CoV-2 [1] (concentration 0.10 uM, 0.1 µM); 2.60 ± 1.90% and 7.2 ± 0.17% in the data set on SARS-CoV-2 [1] (concentration 0.20 uM, 0.2 µM); −1.29 ± 2.86% and 4.8 ± 4.21% in the data set with SARS-CoV-2 [1] (concentration 0.39 uM, 0.39 µM); 0.65 ± 5.05% and 7.4 ± 1.96% with SARS-CoV-2 [1] (concentration 1.56 uM, 1.56 µM); 5.89 ± 3.28% and 11.8 ± 0.80% with SARS-CoV-2 [1] (concentration 3.13 uM, 3.13 µM); 16.2 ± 2.56% in the data set with SARS-CoV-2 [1] (concentration 6.25 uM, 6.25 µM). Besides, the “SARS-CoV-2 virus inhibitory ability (%, average ± standard deviation)” value in the data set on SARS-CoV-2 [1] (concentration 12.5 uM, 12.5 µM) amounted to 47.9 ± 0.01%; with SARS-CoV-2 [1] (concentration 25 uM, 25 µM), 82.1 ± 1.40%; with SARS-CoV-2 [1] (concentration 50 uM, 50 µM), 93.5 ± 1.80%.
Turning to `COc1cc2c(OC)c3c(c(-c4ccc5c(c4)OCO5)c2cc1OC)C(=O)OC3` [Justicidin-A, 9-benzo[1,3]dioxol-5-yl-4,6,7-trimethoxy-3H -naphtho[2,3-c]furan-1-one], the “Cell viability (%, average ± standard deviation)” value is 97.6 ± 0.61% in the data set on Vero cell lines (concentration 0.20 uM); 101.3 ± 1.55% with Vero cell lines (concentration 0.39 uM); 97.4 ± 0.09% in the data set on Vero cell lines (concentration 1.56 uM); 98.4 ± 1.93% with Vero cell lines (concentration 3.13 uM); 96.9 ± 3.33% in the data set with Vero cell lines (concentration 6.25 uM); 96.5 ± 0.20% in the data set on Vero cell lines (concentration 12.5 uM). Besides, the “Cell viability (%, average ± standard deviation)” value with Vero cell lines (concentration 25 uM) was 99.5 ± 1.81%; with Vero cell lines (concentration 50 uM), 98.0 ± 3.04%. Further, the IC50 in the data set on SARS-CoV-2 [1] (setting [7]) was determined as 0.159 µM. Further, the inhibition at 0.1 µM with SARS-CoV-2 [1] (Severe acute respiratory syndrome coronavirus 2, concentration 0.10 uM, Vero cells, 24 h, read-out: SARS-CoV-2 virus inhibitory ability (%, average ± standard deviation)) turned out to be 25.7 ± 12.3%. Also, the inhibition at 0.2 µM in the data set with SARS-CoV-2 [1] (Severe acute respiratory syndrome coronavirus 2, concentration 0.20 uM, Vero cells, 24 h, read-out: SARS-CoV-2 virus inhibitory ability (%, average ± standard deviation)) was 75.3 ± 4.37%. Also, in the data set with SARS-CoV-2 [1] (Severe acute respiratory syndrome coronavirus 2, concentration 0.39 uM, Vero cells, 24 h, read-out: SARS-CoV-2 virus inhibitory ability (%, average ± standard deviation)), the inhibition at 0.39 µM came out at 95.2 ± 1.48%. The inhibition at […] with SARS-CoV-2 [1] (Severe acute respiratory syndrome coronavirus 2, concentration 0.78 uM, Vero cells, 24 h, read-out: SARS-CoV-2 virus inhibitory ability (%, average ± standard deviation)) amounted to 99 ± 1.58%. Further, the inhibition at 1.56 µM with SARS-CoV-2 [1] (Severe acute respiratory syndrome coronavirus 2, concentration 1.56 uM, Vero cells, 24 h, read-out: SARS-CoV-2 virus inhibitory ability (%, average ± standard deviation)) came out at 99 ± 0.57%. Besides, the inhibition at 3.13 µM with SARS-CoV-2 [1] (Severe acute respiratory syndrome coronavirus 2, concentration 3.13 uM, Vero cells, 24 h, read-out: SARS-CoV-2 virus inhibitory ability (%, average ± standard deviation)) was determined as 100 ± 0.36%. The inhibition at 6.25 µM with SARS-CoV-2 [1] (Severe acute respiratory syndrome coronavirus 2, concentration 6.25 uM, Vero cells, 24 h, read-out: SARS-CoV-2 virus inhibitory ability (%, average ± standard deviation)) amounted to 99.6 ± 0.16%. Besides, the inhibition at 12.5 µM with SARS-CoV-2 [1] (Severe acute respiratory syndrome coronavirus 2, concentration 12.5 uM, Vero cells, 24 h, read-out: SARS-CoV-2 virus inhibitory ability (%, average ± standard deviation)) was found to be 98.1 ± 1.47%. Further, the inhibition at 25 µM in the data set on SARS-CoV-2 [1] (Severe acute respiratory syndrome coronavirus 2, concentration 25 uM, Vero cells, 24 h, read-out: SARS-CoV-2 virus inhibitory ability (%, average ± standard deviation)) amounted to 95.3 ± 0.61%. Besides, the inhibition at 50 µM with SARS-CoV-2 [1] (Severe acute respiratory syndrome coronavirus 2, concentration 50 uM, Vero cells, 24 h, read-out: SARS-CoV-2 virus inhibitory ability (%, average ± standard deviation)) stood at 93.3 ± 1.69%. Besides, in the data set with SARS-CoV-2 [1] (Vero cells, comparison at IC50 values with Remdesivir, Lopinavir and Chloroquine), the “SARS-CoV-2 inhibitory ability (in words)” value is reported as “remarkably more excellent”.
